1 molecule from patent US20070212360A1, “Modulation of mitochondrial oxygen consumption for therapeutic purposes” (priority 2006, published 2007) can be followed below.

Assay [1] relates to HIF1 responsive luciferase reporter in RKO cells. The experiment in a line: 5×HRE-luciferase reporter assay in vitro. The conditions noted are these: 0.5% O2 24 h, increasing concentrations, dose dependent. Format: cell-based, human. As to the method:
FIG. 8. Increasing oxygen consumption by inhibition of PDK activity increases tumor hypoxia. (a) Luciferase activity of wildtype and HIF1α knockdown RKO cells stably transfected with a HIF1 responsive luciferase reporter gene. Cells were exposed to 0.5% O2 for 24 hours in triplicate. Luminescence is normalized to normoxic HIF wildtype cells. (b) Luciferase activity of wildtype RKO HIF1 reporter cells exposed to 0.5% O2 for 24 hours in the presence of increasing concentrations of echinomycin. Data are normalized to the increase in signal observed in the absence of drug. (c) Bioluminescent imaging in vivo. Images show a representative animal bearing an RKO reporter tumor on the left flank and an RKOShHIF1α reporter tumor on the right flank as a function of time after ip injection of 50 mg/kg DCA. […] (d) Quantification of in vivo bioluminescence. […] The data represent the mean of three independent experiments, each comprising 5 RKO and 5 RKOShHIF1α reporter tumors.
Luciferase reporter assay. […] Cells were exposed to 0.5% O2 for 24 hr, and luciferase activity was measured in triplicate using a luciferase reporter gene assay kit (Roche) and a Monolight 2010 luminometer (Analytical Luminescence Laboratory). […]

Assay [2] concerns HIF1 targets PDK1, Bnip3, and Bnip3L in RKO and Su.86 human tumor cells. Nature of the assay: Western blot of HIF1 target proteins in hypoxic tumor cells. The class given is cell-based. As to conditions: RKO and Su.86 cells, 0.5% O2 24 h, 2 ng/ml echinomycin. As to the method: FIG. 7. Inhibition of HIF1 and PDK1 increases oxygen consumption in vitro and in vivo. (a) Western blots of extracts from RKO and Su.86 cells exposed to normoxia (N) or hypoxia (H) (0.5% O2) for 24 h in the presence or absence of 2 ng/ml echinomycin probed for the indicated proteins. (b) Oxygen consumption rates of RKO and RKOShHIF1α cells (left) and Su.86 cells (right) after 24 h treatment with normoxia or hypoxia (0.5% O2) with or without 2 ng/ml echinomycin. Data are normalized to normoxic samples. (c) Relative oxygen consumption of RKO cells treated with hypoxia (0.5% O2) for 24 h in the presence of increasing concentrations of echinomycin. (d) Oxygen consumption rates of freshly explanted tumor tissue from RKO (n=16) and RKOShHIF1α (n=8) xenografts. (e) Oxygen consumption rates of RKO and RKOShHIF1 tumors from mice treated with 0.12 mg/kg echinomycin ip 24 h prior (n=8), or 50 mg/kg DCA ip 4 h prior (n=8). […]
Western blots. In brief, cells were harvested directly in RIPA buffer containing protease inhibitors, protein concentrations were quantified (Pierce), 25-50 μg of total protein was electrophoresed on a reducing Tris-Tricine gel, and electroblotted to PVDF membrane. […] Primary antibodies were detected with species-specific secondary antibodies labeled with Alkaline Phosphatase (Vector labs) (1:3000) and visualized with ECF (Amersham) on a Storm 860 phosphoimager (Molecular Devices).

Assay [3] has as its system RKO and RKOShHIF1α tumors. Nature of the assay: Oxygen consumption of freshly explanted RKO tumor xenografts. The class given is in vivo, mouse. The conditions noted are these: 0.12 mg/kg echinomycin ip 24 h prior; vs PBS controls. As to the method: FIG. 7. Inhibition of HIF1 and PDK1 increases oxygen consumption in vitro and in vivo. (a) Western blots of extracts from RKO and Su.86 cells exposed to normoxia (N) or hypoxia (H) (0.5% O2) for 24 h in the presence or absence of 2 ng/ml echinomycin probed for the indicated proteins. (b) Oxygen consumption rates of RKO and RKOShHIF1α cells (left) and Su.86 cells (right) after 24 h treatment with normoxia or hypoxia (0.5% O2) with or without 2 ng/ml echinomycin. Data are normalized to normoxic samples. (c) Relative oxygen consumption of RKO cells treated with hypoxia (0.5% O2) for 24 h in the presence of increasing concentrations of echinomycin. (d) Oxygen consumption rates of freshly explanted tumor tissue from RKO (n=16) and RKOShHIF1α (n=8) xenografts. (e) Oxygen consumption rates of RKO and RKOShHIF1 tumors from mice treated with 0.12 mg/kg echinomycin ip 24 h prior (n=8), or 50 mg/kg DCA ip 4 h prior (n=8). Data is normalized to PBS treated controls (n=8-16). (*) indicate a significant difference relative to control (p<0.05).
Cell lines and tumor xenografts. […]
Oxygen consumption measurements. […] Oxygen consumption was measured in a 0.5 ml volume using an Oxytherm electrode unit (Hansatech, Norfolk, UK). […] Oxygen consumption was measured as above in a 1 ml volume and normalized to tissue weight.

Molecules are shown by their SMILES.

As to `CS[C@H]1SC[C@H]2C(=O)N(C)[C@@H](C(C)C)C(=O)OC[C@@H](NC(=O)c3cnc4ccccc4n3)C(=O)N[C@@H](C)C(=O)N(C)[C@@H]1C(=O)N(C)[C@@H](C(C)C)C(=O)OC[C@@H](NC(=O)c1cnc3ccccc3n1)C(=O)N[C@@H](C)C(=O)N2C` [echinomycin], the “hypoxic induction of luciferase in RKO reporter cells in vitro” value in assay [1] is “completely inhibited”. Besides, the “hypoxic induction of PDK1, Bnip3, and Bnip3L (immunoblot)” value in assay [2] is listed as “blocked”. Also, in assay [3], the “tumor oxygen consumption, RKO wildtype tumors” value is “significantly increased” and the “tumor oxygen consumption, RKOShHIF1 tumors” value is on record as “no effect”.
